Reference: patent US20260250320A1, “LIPIDATED PEPTIDE INHIBITORS OF INTERLEUKIN-23 RECEPTOR” (Janssen Pharmaceutica NV, priority 2023, published 2026)
*1 amine or outer side, *2 acyl side, *3 side chain or, on linkers, in order; H or OH if unused. Where a SMILES comes first, the peptide text is derived from it. Bridges are numbered along the chain shown (N, C = ends). Side-chain parts run from the residue outwards. [ ]: non-standard residue; d: D form. The star is where a group is joined. Me3N+(CH2)2O(CH2)2O(CH2)2CO = C[N+](C)(C)CCOCCOCCC(=O)*; Trp(7-Me) = Cc1cccc2c(C[C@H](N)C(=O)O)c[nH]c12; C18 diacid = O=C(O)CCCCCCCCCCCCCCCCC(=O)*; C16 diacid = O=C(O)CCCCCCCCCCCCCCC(=O)*; γGlu = O=C(O)[C@H](CCC(=O)[*:2])N[*:1]; 2Nal = N[C@@H](Cc1ccc2ccccc2c1)C(=O)O; AEF = NCCOc1ccc(C[C@H](N)C(=O)O)cc1; X2 = C[N+](C)(C)C[C@@H](CC(=O)O)N*; 3Pal = N[C@@H](Cc1cccnc1)C(=O)O; Lys(Me) = CNCCCC[C@H](N)C(=O)O; Pen = CC(C)(S)[C@H](N)C(=O)O; Suc = O=C(CCC(=O)[*:2])[*:1]; Thp = NC1(C(=O)O)CCOCC1; X1 = C[N+](C)(C)CCCCC*; AEEA = NCCOCCOCC(=O)O; Sar = CNCC(=O)O

Legend:
IL-23R = target: T1, IL-23R (Homo sapiens, UniProt Q5VWK5); assay: IL23R Reporter Assay; type: cell-based; settings: HEK293 cells containing IL-23R, IL-12Rβ1 and STAT-inducible firefly luciferase reporter; 10 ng/mL IL-23 (EC90); 5 h
T1 construct: HEK293 cells containing IL-23R, IL-12Rβ1 and a firefly luciferase reporter gene driven by a STAT-inducible promoter (Promega); host or cells: HEK293
T1 sequence (Q5VWK5 24-629): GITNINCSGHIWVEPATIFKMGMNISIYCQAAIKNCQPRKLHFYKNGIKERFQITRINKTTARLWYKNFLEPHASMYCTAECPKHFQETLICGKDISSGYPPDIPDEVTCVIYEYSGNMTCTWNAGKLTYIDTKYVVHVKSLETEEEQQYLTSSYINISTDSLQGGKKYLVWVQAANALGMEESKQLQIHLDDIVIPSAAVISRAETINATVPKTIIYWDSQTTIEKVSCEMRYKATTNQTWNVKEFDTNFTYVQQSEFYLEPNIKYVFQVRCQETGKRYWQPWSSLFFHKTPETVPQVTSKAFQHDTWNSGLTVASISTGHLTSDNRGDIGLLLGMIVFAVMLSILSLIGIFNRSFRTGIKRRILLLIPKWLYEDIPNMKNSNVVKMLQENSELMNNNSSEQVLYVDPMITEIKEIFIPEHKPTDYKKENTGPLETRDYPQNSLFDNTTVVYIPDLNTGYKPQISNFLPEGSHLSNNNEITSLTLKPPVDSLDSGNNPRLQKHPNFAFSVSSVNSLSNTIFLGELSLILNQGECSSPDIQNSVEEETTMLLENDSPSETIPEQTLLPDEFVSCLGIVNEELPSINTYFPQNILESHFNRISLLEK
Procedure, shortened: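 IC50 values were fitted with a 4-parameter Hill equation to luciferase signal, scaled between IL-23-only wells (0% inhibition) and 30 μM reference inhibitor (100%). The readout was a STAT-inducible reporter in IL-23R/IL-12Rβ1 HEK293 cells, stimulated with added 10 ng/mL IL-23 (EC90) for 5 h at 37° C and developed with BioGlo.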

[1] = system: IL-23-stimulated phosphorylated STAT3 in peripheral blood mononuclear cells (PBMCs); assay: PBMC pSTAT3 Assay; type: cell-based; settings: PBMCs from healthy donors; 30 min preincubation with peptide; IL-23 5 ng/mL for 30 min; phospho-STAT3 by MSD
Procedure, shortened: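 Phospho-STAT3 quantified by Meso Scale assay in lysates of PBMCs exposed to IL-23 (5 ng/mL, 30 min, 37 °C) after 30 min peptide pretreatment. Cells were cryopreserved donor PBMCs activated 4 days with anti-CD3 plus IL-1β (100 ng/mL) and starved ~4 h; IC50 reported.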

SMILES | IC50 (IL-23R) [nM] | IC50 [1] [nM]
CC(=O)N[C@H](CCCNC(=N)N)C(=O)N[C@@H]1C(=O)N[C@@H](CC(N)=O)C(=O)N[C@@H]([C@@H](C)O)C(=O)N[C@@H](Cc2c[nH]c3c(C)cccc23)C(=O)N[C@@H](CCCCNC(=O)COCCOCCNC(=O)COCCOCCNC(=O)CC[C@H](NC(=O)CCCCCCCCCCCCCCC(=O)O)C(=O)O)C(=O)N[C@H](C(=O)N[C@@H](Cc2ccc(OCCCCC[N+](C)(C)C)cc2)C(=O)N[C@@H](Cc2ccc3ccccc3c2)C(=O)NC2(C(=O)N[C@@H](CCC(=O)O)C(=O)N[C@@H](CC(N)=O)C(=O)N[C@@H](Cc3cccnc3)C(=O)N(C)CC(=O)N(C)C)CCOCC2)C(C)(C)SSC1(C)C [compound 92, MeCO-r-Pen(3)-N-T-7MeW-K(PEG2PEG2gEC18OH)-Pen(3)-TMAPF-2Nal-THF-E-N-3Pya-Sar-CONH2] (Ac-[dR][Pen]NT[Trp(7-Me)]K([AEEA-AEEA-γGlu-C16 diacid])[Pen]Y(X1)[2Nal][Thp]EN[3Pal][Sar]-NMe2; disulfide 2-7) | 50 to 500 | < 0.5
CC(=O)NCCCC[C@@H]1NC(=O)[C@H](Cc2c[nH]c3c(C)cccc23)NC(=O)[C@H]([C@@H](C)O)NC(=O)[C@H](CC(N)=O)NC(=O)[C@@H](NC(=O)[C@@H](CCCNC(=N)N)NC(C)=O)C(C)(C)SSC(C)(C)[C@@H](C(=O)N[C@@H](Cc2ccc(OCCNC(=O)CCC(=O)N[C@H](CC(=O)O)C[N+](C)(C)C)cc2)C(=O)N[C@@H](Cc2ccc3ccccc3c2)C(=O)NC2(C(=O)N[C@@H](CCCCNC(=O)COCCOCCNC(=O)COCCOCCNC(=O)CC[C@H](NC(=O)CCCCCCCCCCCCCCCCC(=O)O)C(=O)O)C(=O)N[C@@H](CC(N)=O)C(=O)N[C@@H](Cc3cccnc3)C(=O)N(C)CC(N)=O)CCOCC2)NC1=O [compound 22, MeCO-r-Pen(3)-N-T-7MeW-K(Ac)-Pen(3)-AEF(d)-2Nal-THP-K(PEG2PEG2gEC18OH)-N-3Pya-Sar-CONH2] (Ac-[dR][Pen]NT[Trp(7-Me)]K(Ac)[Pen][AEF]([Suc-X2])[2Nal][Thp]K([AEEA-AEEA-γGlu-C18 diacid])N[3Pal][Sar]-NH2; disulfide 2-7) | < 50 | < 0.5
CC(=O)N[C@H](CCCNC(=N)N)C(=O)N[C@@H]1C(=O)N[C@@H](CCCCNC(=O)COCCOCCNC(=O)COCCOCCNC(=O)CC[C@H](NC(=O)CCCCCCCCCCCCCCCCC(=O)O)C(=O)O)C(=O)N[C@@H]([C@@H](C)O)C(=O)N[C@@H](Cc2c[nH]c3c(C)cccc23)C(=O)N[C@@H](CCCCN(C)C(=O)CCOCCOCC[N+](C)(C)C)C(=O)N[C@H](C(=O)N[C@@H](Cc2ccc(OCCN)cc2)C(=O)N[C@@H](Cc2ccc3ccccc3c2)C(=O)NC2(C(=O)N[C@@H](CCC(=O)O)C(=O)N[C@@H](CC(N)=O)C(=O)N[C@@H](Cc3cccnc3)C(=O)N(C)CC(N)=O)CCOCC2)C(C)(C)SSC1(C)C [compound 77, 5cpaCO-Pen(3)-N-T-7MeW-K(Ac)-Pen(3)-AEF-2Nal-THP-K(PEG2PEG2gEC18OH)-N-3Pya-Sar-CONH2] (Ac-[dR][Pen]K([AEEA-AEEA-γGlu-C18 diacid])T[Trp(7-Me)][Lys(Me)](Me3N+(CH2)2O(CH2)2O(CH2)2CO)[Pen][AEF][2Nal][Thp]EN[3Pal][Sar]-NH2; disulfide 2-7) | 50 to 500 | < 0.5
CC(=O)N[C@H](CCCNC(=N)N)C(=O)N[C@@H]1C(=O)N[C@@H](CC(N)=O)C(=O)N[C@@H]([C@@H](C)O)C(=O)N[C@@H](Cc2c[nH]c3c(C)cccc23)C(=O)N[C@@H](CCCCNC(=O)CCC(=O)N[C@H](CC(=O)O)C[N+](C)(C)C)C(=O)N[C@H](C(=O)N[C@@H](Cc2ccc(OCCN)cc2)C(=O)N[C@@H](Cc2ccc3ccccc3c2)C(=O)NC2(C(=O)N[C@@H](CCC(=O)O)C(=O)N[C@@H](CC(N)=O)C(=O)N[C@@H](Cc3cccnc3)C(=O)N(C)CC(=O)N[C@@H](CCCCNC(=O)COCCOCCNC(=O)COCCOCCNC(=O)CC[C@H](NC(=O)CCCCCCCCCCCCCCCCC(=O)O)C(=O)O)C(N)=O)CCOCC2)C(C)(C)SSC1(C)C [compound 52, MeCO-r-Pen(3)-N-T-7MeW-K(d)-Pen(3)-AEF-2Nal-THP-E-N-3Pya-Sar-K(PEG2PEG2gEC18OH)-CONH2] (Ac-[dR][Pen]NT[Trp(7-Me)]K([Suc-X2])[Pen][AEF][2Nal][Thp]EN[3Pal][Sar]K([AEEA-AEEA-γGlu-C18 diacid])-NH2; disulfide 2-7) | 50 to 500 | < 0.5
